Assay results published in article PMC11876601 (Molecular Systems Biology, 2025).
Several values for one entry are separate records, joined by “and”; a condition that tells them apart may be missing. Equal values may be shown once. Read-outs that look alike come from different tables or passages of the source.

Assays:
PANC-1 cells = assay: Cell proliferation assay, GEM + ATR inhibitor (Incucyte confluence, 72 h); details: for EC50: Homo sapiens, mean of replicates; for Curve bottom / Curve top: PANC-1, plateau of fitted curve, ratio drug/vehicle confluence;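 for EC50: in combination experiments GEM is titrated while ATRi is held at a fixed sub-EC50 dose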;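 for all read-outs here: PANC-1 confluence at 72 h taken as raw values, not normalized to starting confluence, with each experiment run in triplicate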
Procedure: Cells were seeded at 5000 cells/well into 96-well flat bottom plates (Eppendorf) and allowed to attach overnight. […] Cells were incubated for 72 h at 37 °C and 5% CO2. Cell confluence readouts at 72 h were either normalized to their initial confluence using the Incucyte software (AsPC-1) or used without prior normalization (all others). […] Each experiment was performed in triplicates, the data was plotted as mean ± standard deviation (s.d.).

[1] = system: p-sites in DNA-damaged AsPC-1 cells; assay: decryptM dose-resolved phosphoproteomics of ATRi in GEM-pre-treated cells; assay type: cell-based, human; details: for EC50: Homo sapiens, ASPC1; for PTM response (norm. to 1 µM GEM): source data 4B (p-site not named)
Outline: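 AsPC-1 cells were treated at 0.2% final DMSO, with vehicle lysis at time 0, and lysed in 2% SDS/Tris pH 7.6. Tryptic digests were TMT-11plex labeled and fractionated by basic reversed-phase chromatography. Phosphopeptides were enriched by Fe(III)-NTA IMAC.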

Question: Which EC50 (PANC-1 cells; PANC-1, 72 h, read-out: EC50 mean [nM], PANC-1, experiment ATRi (ATR inhibitor alone)) does the source give for `Nc1nn2cc(F)cnc2c1C(=O)Nc1cncc(F)c1N1CCC(C(=O)N2CCN(C3COC3)CC2)CC1` [Gartisertib] here?
Answer: Its EC50 is 7880 nM.

Question: And the EC50 (PANC-1 cells; PANC-1, read-out: EC50 mean [nM], PANC-1, experiment ATRi (ATR inhibitor alone))?
Answer: The EC50 was 7880 nM.

Question: And the EC50 (PANC-1 cells; PANC-1, read-out: EC50 mean [nM], PANC-1, experiment GEM+ATRi_dose1)?
Answer: The EC50 was 4.13 nM.

Question: And the EC50 (PANC-1 cells; PANC-1, read-out: EC50 mean [nM], PANC-1, experiment GEM+ATRi_dose2)?
Answer: The EC50 was 8.99 nM.

Question: What about the EC50 (PANC-1 cells; PANC-1, read-out: EC50 mean [nM], PANC-1, experiment GEM+ATRi_dose3) of the same compound?
Answer: The EC50 was 6.69 nM.

Question: And the Curve bottom (PANC-1 cells; experiment ATRi (ATR inhibitor alone))?
Answer: The Curve bottom was 1.03 and 0.99 and 0.93.

Question: What about the Curve top (PANC-1 cells; experiment GEM+ATRi_dose1) of the same compound?
Answer: The Curve top was 0.48 and 0.43 and 0.49.

Question: What about the Curve top (PANC-1 cells; experiment GEM+ATRi_dose2) of the same compound?
Answer: The Curve top was 0.47 and 0.43 and 0.52.

Question: What about the Curve bottom (PANC-1 cells; experiment GEM+ATRi_dose3) of the same compound?
Answer: The Curve bottom was 0.95 and 0.86 and 1.00.

Question: What about the Curve top (PANC-1 cells; experiment GEM+ATRi_dose3) of the same compound?
Answer: The Curve top was 0.47 and 0.45 and 0.50.

Question: What about the “Ratio TMT 9 (PTM response normalized to 1,000 nM GEM), AAAS S495” value ([1]; 1,000 nM GEM + 1 nM ATRi) of the same compound?
Answer: The value was 1.01.

Question: What about the “Ratio TMT 8 (PTM response normalized to 1,000 nM GEM), AAAS S495” value ([1]; 1,000 nM GEM + 3 nM ATRi) of the same compound?
Answer: Its value is 1.19.

Question: And the “Ratio TMT 7 (PTM response normalized to 1,000 nM GEM), AAAS S495” value ([1]; 1,000 nM GEM + 10 nM ATRi)?
Answer: The value was 1.10.

Question: What about the “Ratio TMT 6 (PTM response normalized to 1,000 nM GEM), AAAS S495” value ([1]; 1,000 nM GEM + 30 nM ATRi) of the same compound?
Answer: The value was 1.01.

Question: What about the “Ratio TMT 5 (PTM response normalized to 1,000 nM GEM), AAAS S495” value ([1]; 1,000 nM GEM + 100 nM ATRi) of the same compound?
Answer: The value was 0.97.

Question: And the “Ratio TMT 4 (PTM response normalized to 1,000 nM GEM), AAAS S495” value ([1]; 1,000 nM GEM + 300 nM ATRi)?
Answer: The value was 1.12.

Question: And the “Ratio TMT 3 (PTM response normalized to 1,000 nM GEM), AAAS S495” value ([1]; 1,000 nM GEM + 1,000 nM ATRi)?
Answer: Its value is 1.11.

Question: What about the “Ratio TMT 2 (PTM response normalized to 1,000 nM GEM), AAAS S495” value ([1]; 1,000 nM GEM + 3,000 nM ATRi) of the same compound?
Answer: Its value is 1.00.

Question: And the “Ratio TMT 1 (PTM response normalized to 1,000 nM GEM), AAAS S495” value ([1]; 1,000 nM GEM + 10,000 nM ATRi)?
Answer: Its value is 1.09.

Question: And the “Log2 PTM response (GEM+ATRi vs. GEM)” value ([1]; AASDHPPT-pS258)?
Answer: Its value is -1.6.

Question: What about the “Log2 PTM response (GEM+ATRi vs. GEM)” value ([1]; BRCA1-pS1239) of the same compound?
Answer: Its value is -2.

Question: And the “Log2 PTM response (GEM+ATRi vs. GEM)” value ([1]; BRD8-pS621)?
Answer: The value was -1.6.

Question: And the “Log2 PTM response (GEM+ATRi vs. GEM)” value ([1]; CDKN2AIP-pS198)?
Answer: The value was -1.3.

Question: And the “Log2 PTM response (GEM+ATRi vs. GEM)” value ([1]; CHEK1-pS317)?
Answer: The value was -2.3.

Question: And the “Log2 PTM response (GEM+ATRi vs. GEM)” value ([1]; EXO1-pS714)?
Answer: The value was -1.9.

Question: And the “Log2 PTM response (GEM+ATRi vs. GEM)” value ([1]; FANCD2-pS319)?
Answer: The value was -1.

Question: And the “Log2 PTM response (GEM+ATRi vs. GEM)” value ([1]; HDGF-pS103)?
Answer: The value was -1.6.

Question: And the “Log2 PTM response (GEM+ATRi vs. GEM)” value ([1]; HMGA1-pS9)?
Answer: The value was -2.

Question: What about the “Log2 PTM response (GEM+ATRi vs. GEM)” value ([1]; HMGA1-pS36;S44) of the same compound?
Answer: The value was -0.9.

Question: What about the “Log2 PTM response (GEM+ATRi vs. GEM)” value ([1]; HMGA1-pS44) of the same compound?
Answer: The value was -2.1.

Question: What about the “Log2 PTM response (GEM+ATRi vs. GEM)” value ([1]; HTATSF1-pS481) of the same compound?
Answer: Its value is -1.1.

Question: What about the EC50 ([1]; approximate, from density plot Fig. 4C (peer review file), read-out: EC50 of the majority of pSQ/pTQ sites) of the same compound?
Answer: The EC50 was roughly 10 nM.

Question: What about the EC50 ([1]; approximate, from density plot Fig. 4C (peer review file), read-out: pEC50 of the majority of pSQ/pTQ sites (converted)) of the same compound?
Answer: Its EC50 is roughly 10 nM.

Question: And the EC50 ([1]; p-site dose-response in GEM-pre-treated cells, read-out: EC50, RALY S176)?
Answer: Its EC50 is 1.91 nM.

Question: What about the EC50 ([1]; p-site dose-response in GEM-pre-treated cells, read-out: pEC50, RALY S176 (converted)) of the same compound?
Answer: The EC50 was 1.91 nM.

Question: What about the EC50 ([1]; read-out: median EC50 across all drug-regulated pSQ/pTQ-sites) of the same compound?
Answer: The EC50 was 21 nM.

Question: And the “Log2 PTM response (GEM+ATRi vs. GEM)” value ([1]; LRRC42-pS385)?
Answer: The value was -2.5.

Question: What about the “Log2 PTM response (GEM+ATRi vs. GEM)” value ([1]; NBN-pS397) of the same compound?
Answer: Its value is -1.3.

Question: What about the “Log2 PTM response (GEM+ATRi vs. GEM)” value ([1]; NBN-pS615) of the same compound?
Answer: Its value is -0.8.

Question: And the “Log2 PTM response (GEM+ATRi vs. GEM)” value ([1]; NSUN5-pS432)?
Answer: The value was -2.2.

Question: What about the “Log2 PTM response (GEM+ATRi vs. GEM)” value ([1]; PELP1-pS1033) of the same compound?
Answer: Its value is -1.

Question: What about the “Log2 PTM response (GEM+ATRi vs. GEM)” value ([1]; PHF14-pS294) of the same compound?
Answer: Its value is -1.2.

Question: What about the “Log2 PTM response (GEM+ATRi vs. GEM)” value ([1]; PNISR-pS706) of the same compound?
Answer: The value was -1.9.

Question: And the “Log2 PTM response (GEM+ATRi vs. GEM)” value ([1]; PPM1G-pS201)?
Answer: The value was -2.3.

Question: What about the “Log2 PTM response (GEM+ATRi vs. GEM)” value ([1]; PPP6R3-pS825) of the same compound?
Answer: The value was -1.

Question: What about the “Log2 PTM response (GEM+ATRi vs. GEM)” value ([1]; PSMD4-pS266) of the same compound?
Answer: The value was -1.2.

Question: What about the “Log2 PTM response (GEM+ATRi vs. GEM)” value ([1]; RAD18-pS368) of the same compound?
Answer: Its value is -2.8.

Question: And the “Log2 PTM response (GEM+ATRi vs. GEM)” value ([1]; RIF1-pS1873)?
Answer: Its value is -1.4.

Question: And the “Log2 PTM response (GEM+ATRi vs. GEM)” value ([1]; SNRPA-pS115)?
Answer: Its value is -1.

Question: And the “Log2 PTM response (GEM+ATRi vs. GEM)” value ([1]; TCEA1-pS100;S97)?
Answer: The value was -2.6.

Question: And the “Log2 PTM response (GEM+ATRi vs. GEM)” value ([1]; TCEB3-pS251)?
Answer: The value was -1.6.

Question: And the “Log2 PTM response (GEM+ATRi vs. GEM)” value ([1]; THAP4-pS186)?
Answer: Its value is -1.3.

Question: And the “Log2 PTM response (GEM+ATRi vs. GEM)” value ([1]; TOPBP1-pS1504)?
Answer: Its value is -1.4.

Question: What about the “Log2 PTM response (GEM+ATRi vs. GEM)” value ([1]; TSEN34-pS136) of the same compound?
Answer: Its value is -1.3.

Question: And the “Log2 PTM response (GEM+ATRi vs. GEM)” value ([1]; UHRF1-pS393)?
Answer: Its value is -0.6.

Question: What about the “Log2 PTM response (GEM+ATRi vs. GEM)” value ([1]; UIMC1-pS171) of the same compound?
Answer: Its value is -1.

Question: What about the “ATRi Regulation (Curve), RALY S176” value ([1]; classified by CurveCurator) of the same compound?
Answer: Its value is “down”.

Question: What about the “Curve Log2 Fold Change, RALY S176” value ([1]; fitted dose-response curve) of the same compound?
Answer: Its value is -1.45 log2.

Question: And the “PTM response (norm. to 1 µM GEM)” value ([1]; 1 µM GEM + ATRi 1 nM)?
Answer: The value was 1.13.

Question: What about the “PTM response (norm. to 1 µM GEM)” value ([1]; 1 µM GEM + ATRi 3 nM) of the same compound?
Answer: Its value is 0.97.

Question: What about the “PTM response (norm. to 1 µM GEM)” value ([1]; 1 µM GEM + ATRi 10 nM) of the same compound?
Answer: The value was 0.75.

Question: And the “PTM response (norm. to 1 µM GEM)” value ([1]; 1 µM GEM + ATRi 30 nM)?
Answer: Its value is 0.41.

Question: And the “PTM response (norm. to 1 µM GEM)” value ([1]; 1 µM GEM + ATRi 100 nM)?
Answer: Its value is 0.29.

Question: What about the “PTM response (norm. to 1 µM GEM)” value ([1]; 1 µM GEM + ATRi 300 nM) of the same compound?
Answer: Its value is 0.28.

Question: And the “PTM response (norm. to 1 µM GEM)” value ([1]; 1 µM GEM + ATRi 1000 nM)?
Answer: Its value is 0.21.

Question: What about the “PTM response (norm. to 1 µM GEM)” value ([1]; 1 µM GEM + ATRi 3000 nM) of the same compound?
Answer: Its value is 0.17.

Question: And the “PTM response (norm. to 1 µM GEM)” value ([1]; 1 µM GEM + ATRi 10000 nM)?
Answer: Its value is 0.19.
